According to patent US7186530B1, “Protein associated with cell stress response” (Chiron Corporation, priority 2000, dated 2007):

Legend:
[1] = system: p46 hyperphosphorylation; assay: p46 (Nogo B) hyperphosphorylation after UVC irradiation in presence of inhibitors, Western blot with SC-54; format: cell-based, human
Procedure: FIG. 5. […] Then cells were irradiated with 20 J/m^2 of UVC and lysed 30 minutes later. Whole cell lysates were separated on SDS-PAGE. SC-54 was used for Western Blotting.
(§1) Cell culture and treatment. Normal human fibroblast IMR90 was purchased from American Type Culture Collection (Manassas, Va.). Cells were routinely cultured in Dulbecco's Modified Eagle's Medium (DMEM) containing 10% fetal bovine serum, 2 mM L-glutamine, 4.5 g/liter glucose, 100 units penicillin and 100 μg streptomycin at 37° C. under an atmosphere of 5% CO2. For UV irradiation, cells were washed twice with phosphate-buffered saline (PBS) and then irradiated with appropriate doses of UVC (254 nm). Fresh complete medium was added back and cells were lysed at appropriate times. For treatment with BPDE, cells were washed with PBS twice and fresh DMEM was added. BPDE was dissolved in anhydrous dimethyl sulfoxide (DMSO) and appropriate amount of BPDE solution was added to DMEM. Cells were lysed 30 minutes later.
(§2) Western Blotting. Lysates prepared from equal number of cells were mixed with equal volume of 2× sample buffer (50 mM Tris.HCl, pH 6.9, 9% glycerol, 2.3% SDS, 0.1% bromophenol blue and 10% mecaptoethanol) and the proteins were separated on a SDS/polyacrylamide gel. The proteins were then electroblotted onto an Immobilon-P membrane (Millipore, Bedford, Mass.). The blots were blocked for 1 hour at room temperature in Tris-buffered saline (20 mM Tris-HCl, pH 7.6, 137 mM NaCl) containing 0.1% (v/v) Tween 20 and 5% (w/v) non-fat dry milk (blocking solution), and then incubated for 1 hour at room temperature with appropriate antibodies at a concentration of 0.2–1 μg/ml. The blots were washed several times and then incubated with horseradish peroxidase-conjugated goat-anti-mouse IgG (Santa Cruz Biotechnology) that had been diluted 1:3000 with blocking solution. Enhanced chemiluminescence (Amersham, Arlington Heights, Ill.) was used according to the manufacturer's recommendations to detect the signal.
(§3) The data shown in FIG. 4 were obtained as follows. (A) IMR90 cells were treated with 0, 0.5, 1, or 4 μM of BPDE and trypsinized after 30 minutes. Digitonin-solubilized fraction (Cyto) and NP-40-solubilized fraction (Nuc) were separated on SDS-PAGE. SC-54 was used for Western Blotting. In FIG. 4, (B) IMR90 cells were incubated in the presence or absence of suramin (0.15 mM) for 1 hour before being irradiated with 0 or 20 J/m^2 of UVC. After 0, 10, 20 or 30 minutes, whole cell lysates were prepared, separated on SDS-PAGE and transferred to a PVDF membrane. SC-54 or an antibody against human ERK2 was used for Western Blotting. […] In FIG. 4, (C) IMR90 cells were treated with 0.7 M NaCl, 1 mM H2O2, 0.4 M Sorbitol or PBS (control) for 45 minutes before being lysed. Whole cell lysates were separated on SDS-PAGE. SC-54 was used for Western Blotting.
It has been shown that elevated cellular stress level can activate p38 MAPK. The role of activation of p38 MAPK in p46 hyperphosphorylation was investigated.

[2] = system: ERK2; assay: ERK2 phosphorylation after UVC irradiation, Western blot; format: cell-based, human; conditions: preincubation 0.15 mM for 1 hour, 20 J/m^2 UVC, IMR90 cells
Procedure: as §2
The data shown in FIG. 4 were obtained as follows. (A) IMR90 cells were treated with 0, 0.5, 1, or 4 μM of BPDE and trypsinized after 30 minutes. Digitonin-solubilized fraction (Cyto) and NP-40-solubilized fraction (Nuc) were separated on SDS-PAGE. SC-54 was used for Western Blotting. […]

[3] = system: p46 hyperphosphorylation; assay: p46 hyperphosphorylation induced by stress-inducing agents, Western blot; format: cell-based, human; conditions: for hyperphosphorylation of p46 (induction): 45 minutes
Procedure: FIG. 4. […] (A) IMR90 cells were treated with 0, 0.5, 1, or 4 μM of BPDE and trypsinized after 30 minutes. (B) IMR90 cells were incubated in the presence or absence of suramin (0.15 mM) for 1 hour before being irradiated with 0 or 20 J/m^2 of UVC. (C) IMR90 cells were treated with 0.7 M NaCl, 1 mM H2O2, 0.4 M Sorbitol or PBS (control) for 45 minutes before being lysed.
as §1, §2, §3

[4] = system: p38; conditions: read-out: IC50 (p38-specific inhibitor); cited from earlier work
[5] = system: MEK; conditions: cited from earlier work

## Cc1ccc(C(=O)Nc2ccc(S(=O)(=O)O)c3cc(S(=O)(=O)O)cc(S(=O)(=O)O)c23)cc1NC(=O)c1cccc(NC(=O)Nc2cccc(C(=O)Nc3cc(C(=O)Nc4ccc(S(=O)(=O)O)c5cc(S(=O)(=O)O)cc(S(=O)(=O)O)c45)ccc3C)c2)c1 [suramin]
[1]; preincubation 0.15 mM for 1 hour, 20 J/m^2 UVC, IMR90 cells
  p46 hyperphosphorylation: no effect
[2]
  phosphorylation of ERK2: completely blocked

## C[C@@]1(CO)[C@H](O)CC[C@@]2(C)[C@H]1CC[C@H]1C[C@@H]3C[C@@]12CC[C@]3(O)CO [aphidicolin]
[3]; cells arrested by the agent
  p46 phosphorylation state: hyperphosphorylated

## [Cl-].[Na+] [NaCl]
[3]; 0.7 M, IMR90 cells
  hyperphosphorylation of p46 (induction): rapid hyperphosphorylation

## Oc1ccc(-c2nc(-c3ccc(F)cc3)c(-c3ccncc3)[nH]2)cc1 [SB202190]
[1]; 270 nM inhibitor, 30 minutes before 20 J/m^2 UVC, IMR90 cells
  p46 hyperphosphorylation: almost completely abolished
[1]; indicated concentrations for 30 minutes, then 20 J/m^2 UVC, lysed 30 minutes later, IMR90 (FIG. 5)
  hyperphosphorylation of Nogo: abolished
[4]
  IC50: […]

## COc1cccc(-c2cc(=O)c3ccccc3o2)c1N [PD98059]
[1]; 20 uM
  p46 hyperphosphorylation: not affected
[5]
  IC50: […]

## OO [H2O2]
[3]; 1 mM, IMR90 cells
  hyperphosphorylation of p46 (induction): rapid hyperphosphorylation

## OC1c2cc3ccc4cccc5ccc(c2C2OC2C1O)c3c45 (racemic) [BPDE, (±)-r-7,t-8-dihydroxy-t-9,10-epoxy-7,8,9,10-tetrahydrobenzo(a)pyrene]
[3]; 0, 0.5, 1, or 4 μM, 30 minutes, IMR90 cells
  p46 hyperphosphorylation (induction): led to p46 hyperphosphorylation in a dose-dependent manner

## OC[C@@H](O)[C@@H](O)[C@H](O)[C@@H](O)CO [sorbitol]
[3]; 0.4 M, IMR90 cells
  hyperphosphorylation of p46 (induction): rapid hyperphosphorylation

## CCc1nc(-c2ccc(OC)cc2)[nH]c1-c1ccncc1 [SB202474]
[1]; concentration not given, UVC, IMR90 cells
  p46 hyperphosphorylation: no effect
